The numbers were not newly measured in patent US20200372978A1 (priority 2019, published 2020), which cites them from elsewhere.

SMILES strings stand for the structures.

In the data set the target is T1, PPARγ (Homo sapiens, UniProt P37231).
T1 sequence (P37231 1-505): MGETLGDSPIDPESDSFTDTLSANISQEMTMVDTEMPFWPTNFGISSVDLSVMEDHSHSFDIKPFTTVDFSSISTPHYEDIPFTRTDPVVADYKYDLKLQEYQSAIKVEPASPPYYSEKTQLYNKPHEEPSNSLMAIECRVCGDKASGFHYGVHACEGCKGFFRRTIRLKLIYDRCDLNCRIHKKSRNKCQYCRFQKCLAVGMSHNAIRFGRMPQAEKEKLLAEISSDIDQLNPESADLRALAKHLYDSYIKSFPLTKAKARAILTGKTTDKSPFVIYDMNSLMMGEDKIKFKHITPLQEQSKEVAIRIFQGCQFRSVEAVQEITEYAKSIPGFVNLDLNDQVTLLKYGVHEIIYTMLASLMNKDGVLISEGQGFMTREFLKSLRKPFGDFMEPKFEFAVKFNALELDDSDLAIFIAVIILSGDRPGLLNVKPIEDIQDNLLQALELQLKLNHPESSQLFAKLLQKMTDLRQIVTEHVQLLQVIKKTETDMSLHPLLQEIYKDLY
Particulars: of the maximum effect of ROSI.

`CC(C)COC(=O)c1ccccc1C(=O)OCC(C)C` [DiBP]: the maximum effect is given as 25%.
